PubChem BioAssay (NCI)
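Five concentrations, 48 hours, 96-well plates. TGI marks complete inhibition of growth.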

Assays:
Assay in all cases: NCI tumour cell line growth inhibition, 48 h
OVCAR-3 ovarian = system: OVCAR-3 ovarian
OVCAR-8 ovarian = system: OVCAR-8 ovarian
UACC-62 melanoma = system: UACC-62 melanoma
786-0 renal = system: 786-0 renal
K-562 leukemia = system: K-562 leukemia
SNB-19 CNS = system: SNB-19 CNS
SK-MEL-2 melanoma = system: SK-MEL-2 melanoma
SK-MEL-28 melanoma = system: SK-MEL-28 melanoma
OVCAR-5 ovarian = system: OVCAR-5 ovarian
UO-31 renal = system: UO-31 renal
HS 578T breast = system: HS 578T breast
SW-620 colon = system: SW-620 colon
SR leukemia = system: SR leukemia
UACC-257 melanoma = system: UACC-257 melanoma
HOP-92 NSCLC = system: HOP-92 NSCLC
SN12C renal = system: SN12C renal
SF-295 CNS = system: SF-295 CNS
MOLT-4 leukemia = system: MOLT-4 leukemia
MCF7 breast = system: MCF7 breast
MDA-N = system: MDA-N
NCI/ADR-RES ovarian = system: NCI/ADR-RES ovarian
HT29 colon = system: HT29 colon
HCT-116 colon = system: HCT-116 colon
NCI-H460 lung = system: NCI-H460 lung
SNB-75 CNS = system: SNB-75 CNS
ACHN renal = system: ACHN renal
BT-549 breast = system: BT-549 breast
RXF 393 renal = system: RXF 393 renal
U251 CNS = system: U251 CNS
EKVX NSCLC = system: EKVX NSCLC
HCT-15 colon = system: HCT-15 colon
M14 melanoma = system: M14 melanoma
SK-OV-3 ovarian = system: SK-OV-3 ovarian
RPMI-8226 leukemia = system: RPMI-8226 leukemia
TK-10 renal = system: TK-10 renal
NCI-H522 lung = system: NCI-H522 lung
HCC-2998 colon = system: HCC-2998 colon
DU-145 prostate = system: DU-145 prostate
MDA-MB-231 breast = system: MDA-MB-231 breast
T-47D breast = system: T-47D breast
CCRF-CEM leukemia = system: CCRF-CEM leukemia
LOX IMVI melanoma = system: LOX IMVI melanoma
A549 NSCLC = system: A549 NSCLC
MDA-MB-435 = system: MDA-MB-435
HOP-62 NSCLC = system: HOP-62 NSCLC
COLO 205 colon = system: COLO 205 colon
PC-3 prostate = system: PC-3 prostate
MALME-3M melanoma = system: MALME-3M melanoma
NCI-H23 lung = system: NCI-H23 lung
SK-MEL-5 melanoma = system: SK-MEL-5 melanoma
IGROV1 ovarian = system: IGROV1 ovarian
KM12 colon = system: KM12 colon
OVCAR-4 ovarian = system: OVCAR-4 ovarian
CAKI-1 renal = system: CAKI-1 renal
NCI-H226 lung = system: NCI-H226 lung
A498 renal = system: A498 renal
SF-268 CNS = system: SF-268 CNS
HL-60(TB) leukemia = system: HL-60(TB) leukemia
SF-539 CNS = system: SF-539 CNS

## CN(C)S(=O)(=O)c1ccc2[nH]c(O)c(C3=Nc4ccccc4C3=O)c2c1
OVCAR-3 ovarian
  TGI: > 100 µM
OVCAR-8 ovarian
  TGI: > 100 µM
UACC-62 melanoma
  TGI: 34.9 µM
786-0 renal
  TGI: 50.3 µM
K-562 leukemia
  TGI: > 100 µM
SNB-19 CNS
  TGI: 42.6 µM
SK-MEL-2 melanoma
  TGI: 44.7 µM
SK-MEL-28 melanoma
  TGI: > 100 µM
OVCAR-5 ovarian
  TGI: > 100 µM
UO-31 renal
  TGI: > 100 µM
HS 578T breast
  TGI: 76.9 µM
SW-620 colon
  TGI: > 100 µM
SR leukemia
  TGI: 35.9 µM
UACC-257 melanoma
  TGI: > 100 µM
HOP-92 NSCLC
  TGI: 46.8 µM
SN12C renal
  TGI: > 100 µM
SF-295 CNS
  TGI: 26.7 µM
MOLT-4 leukemia
  TGI: 36.2 µM
MCF7 breast
  TGI: > 100 µM
MDA-N
  TGI: > 100 µM
NCI/ADR-RES ovarian
  TGI: > 100 µM
HT29 colon
  TGI: > 100 µM
HCT-116 colon
  TGI: 70.1 µM
NCI-H460 lung
  TGI: 97.5 µM
SNB-75 CNS
  TGI: 10.3 µM
ACHN renal
  TGI: 33.7 µM
BT-549 breast
  TGI: 28.9 µM
RXF 393 renal
  TGI: 14.2 µM
U251 CNS
  TGI: 24.9 µM
EKVX NSCLC
  TGI: > 100 µM
HCT-15 colon
  TGI: > 100 µM
M14 melanoma
  TGI: > 100 µM
SK-OV-3 ovarian
  TGI: 28.5 µM
RPMI-8226 leukemia
  TGI: > 100 µM
TK-10 renal
  TGI: 40 µM
NCI-H522 lung
  TGI: > 100 µM
HCC-2998 colon
  TGI: > 100 µM
DU-145 prostate
  TGI: 94 µM
MDA-MB-231 breast
  TGI: 52.3 µM
T-47D breast
  TGI: > 100 µM
CCRF-CEM leukemia
  TGI: > 100 µM
LOX IMVI melanoma
  TGI: > 100 µM
A549 NSCLC
  TGI: > 100 µM
MDA-MB-435
  TGI: > 100 µM
HOP-62 NSCLC
  TGI: 47.2 µM
COLO 205 colon
  TGI: > 100 µM
PC-3 prostate
  TGI: 90.4 µM
MALME-3M melanoma
  TGI: > 100 µM
NCI-H23 lung
  TGI: 29.9 µM
SK-MEL-5 melanoma
  TGI: > 100 µM
IGROV1 ovarian
  TGI: 27.4 µM
KM12 colon
  TGI: > 100 µM
OVCAR-4 ovarian
  TGI: > 100 µM
CAKI-1 renal
  TGI: > 100 µM
NCI-H226 lung
  TGI: 81.3 µM
A498 renal
  TGI: 97.4 µM
SF-268 CNS
  TGI: 38.7 µM

## COC(=O)CN1CCN(c2cccc3c2CCCC3)CC1
OVCAR-3 ovarian
  TGI: 72.4 µM
OVCAR-8 ovarian
  TGI: > 100 µM
UACC-62 melanoma
  TGI: > 100 µM
HL-60(TB) leukemia
  TGI: > 100 µM
786-0 renal
  TGI: > 100 µM
K-562 leukemia
  TGI: > 100 µM
SNB-19 CNS
  TGI: > 100 µM
SK-MEL-2 melanoma
  TGI: > 100 µM
OVCAR-5 ovarian
  TGI: > 100 µM
UO-31 renal
  TGI: > 100 µM
HS 578T breast
  TGI: > 100 µM
SW-620 colon
  TGI: > 100 µM
SR leukemia
  TGI: > 100 µM
UACC-257 melanoma
  TGI: > 100 µM
HOP-92 NSCLC
  TGI: 15.4 µM
SN12C renal
  TGI: > 100 µM
SF-295 CNS
  TGI: > 100 µM
MOLT-4 leukemia
  TGI: > 100 µM
MCF7 breast
  TGI: 94.3 µM
MDA-N
  TGI: > 100 µM
NCI/ADR-RES ovarian
  TGI: > 100 µM
HT29 colon
  TGI: 65.8 µM
HCT-116 colon
  TGI: > 100 µM
NCI-H460 lung
  TGI: > 100 µM
SNB-75 CNS
  TGI: > 100 µM
ACHN renal
  TGI: > 100 µM
RXF 393 renal
  TGI: > 100 µM
U251 CNS
  TGI: > 100 µM
EKVX NSCLC
  TGI: > 100 µM
HCT-15 colon
  TGI: > 100 µM
M14 melanoma
  TGI: > 100 µM
RPMI-8226 leukemia
  TGI: 85.8 µM
TK-10 renal
  TGI: > 100 µM
NCI-H522 lung
  TGI: > 100 µM
HCC-2998 colon
  TGI: 85.3 µM
MDA-MB-231 breast
  TGI: > 100 µM
T-47D breast
  TGI: > 100 µM
CCRF-CEM leukemia
  TGI: > 100 µM
LOX IMVI melanoma
  TGI: > 100 µM
A549 NSCLC
  TGI: > 100 µM
SF-539 CNS
  TGI: > 100 µM
MDA-MB-435
  TGI: > 100 µM
HOP-62 NSCLC
  TGI: > 100 µM
COLO 205 colon
  TGI: > 100 µM
PC-3 prostate
  TGI: > 100 µM
MALME-3M melanoma
  TGI: > 100 µM
NCI-H23 lung
  TGI: 48.7 µM
SK-MEL-5 melanoma
  TGI: 60 µM
IGROV1 ovarian
  TGI: > 100 µM
KM12 colon
  TGI: > 100 µM
OVCAR-4 ovarian
  TGI: > 100 µM
CAKI-1 renal
  TGI: > 100 µM
NCI-H226 lung
  TGI: 94.6 µM
A498 renal
  TGI: > 100 µM
